Test results reported in patent publication US11491162B2, “Combination of quinoline-4-carboxamides and benzonaphthyridine derivatives as antimalarial drug combination” (Merck Patent GmbH, priority 2018, dated 2022).
Values joined by “and” are separate entries in the source; they are usually repeats but may differ in a detail not shown here. Identical values can stand only once. Counter-ions that a name gives are not always drawn. Like-named read-outs stand apart in the source and are kept apart here.

How the values were obtained:
[1] = tested on: P. falciparum Pf3D7^0087/N9; experiment: In vivo SCID mouse model, oral therapeutic efficacy; parameters: species or system Plasmodium falciparum; details: for % control: day 7; for Activity: day 7 vs untreated control, succinate salt
Experimental: Compound efficacy was assessed against the Plasmodium falciparum strain Pf3D7^0087/N9 in vivo. Mice are infected intravenously with parasitized red blood cells on day 0. Experimental mice are generally treated at day 3, 4, 5, and 6 post-infection with an oral dose of the compound (single or 4-day oral dosing regimen) and are compared to an infected control group for reduction in parasitemia on day 7 (Maria Belen Jimenez-Díaz, Teresa Mulet, Sara Viera, Vanessa Gomez, Helen Garuti, Javier Ibanez, Angela Alvarez-Doval, Leonard D. Shultz, Antonio Martínez, Domingo Gargallo-Viola, and Inigo Angulo-Barturen, Improved Murine Model of Malaria Using Plasmodium falciparum Competent Strains and Non-Myelodepleted NOD-scid IL2Rgammanull Mice Engrafted with Human Erythrocytes, Antimicrob Agents Chemother. 2009, 53:4533).
PYRO and M1 were solubilized in a vehicle consisting of 70% Tween-80 and 30% ethanol, followed by a 10-fold dilution in H2O.

[2] = In vitro permeability in Caco-2 cells; type: in vitro ADME; details: human
Experimental: (§1) Caco-2 cells are maintained in DMEM in an atmosphere of 8.5% CO2. For transport experiments 0.125×10^6 cells/well of are seeded on polycarbonate filter inserts and are allowed to grow and differentiate for 14±1 days before the cell monolayers are used for experiments. Drug transport experiments are carried out using a cocktail approach in a four-dimensional setting. […] […] The assays are performed in HBSS containing 25 mM HEPES (pH 7.4) in an atmosphere of 5% CO2 at 37° C. Prior to the study, the monolayers are washed in pre-warmed HBSS. At the start of the experiments pre-warmed HBSS containing the test items is added to the donor side of the monolayer and HBSS without test items is added to the receiver side. The plates are shaken at 150 rpm at 37° C. during the experiment. After 2 h the Transwell insert containing the monolayer is carefully removed and placed in a new plate and aliquots of both the receiver and donor sides were taken and diluted with an equal volume of acetonitrile containing the internal standard. The mixture is centrifuged and supernatant analyzed by LC-MS/MS. The apparent permeability coefficients (Papp) are calculated using the formula: Papp=[Vrec/(A×C0,donor)](dCrec/dt)×10^6 with dCrev/dt being the change in concentration in the receiver compartment with time, Vrec the volume of the sample in the receiver compartment, C0, donor the concentration in the donor compartment at time 0, and A the area of the compartment with the cells.

Caco-2 cells = experiment: In vitro permeability in Caco-2 cells; type: in vitro ADME; details: pH 7.4/7.4, Table 8
Experimental: as §1

[3] = M1 4 × 0.2 MG/KG oral, SCID mice, Table 3
[4] = M1 4 × 0.4 MG/KG oral, SCID mice, Table 3
[5] = M1 4 × 0.6 MG/KG oral, SCID mice, Table 3
[6] = M1 4 × 1.2 MG/KG oral, SCID mice, Table 3
[7] = Table 4 entry 2: M1 4 × 1.2 mg/kg, PYRO 0 mg/kg, oral

O=C(NCCN1CCCC1)c1cc(-c2ccc(CN3CCOCC3)cc2)nc2ccc(F)cc12 [M1, 6-fluoro-2-(4-morpholin-4-ylmethyl-phenyl)-quinoline-4-carboxylic acid (2-pyrrolidin-1-yl-ethyl)amide succinate salt]
% PARASITEMIA day 3 post infection [1, 3]: 0.85% | % PARASITEMIA day 4 post infection [1, 3]: 1.33% | % PARASITEMIA day 5 post infection [1, 3]: 3.10% | % PARASITEMIA day 6 post infection [1, 3]: 3.35% | % PARASITEMIA day 7 post infection [1, 3]: 6.55% | % control ([1]; M1 4 × 0.2 MG/KG oral, SCID mice): 71.7% | Activity ([1]; M1 4 × 0.2 MG/KG oral, SCID mice, 0.2 mg/kg): 28.3% | % PARASITEMIA day 3 post infection [1, 4]: 0.70% | % PARASITEMIA day 4 post infection [1, 4]: 1.38% | % PARASITEMIA day 5 post infection [1, 4]: 1.18% | % PARASITEMIA day 6 post infection [1, 4]: 0.75% | % PARASITEMIA day 7 post infection [1, 4]: 0.55% | % control ([1]; M1 4 × 0.4 MG/KG oral, SCID mice): 6.0% | Activity ([1]; M1 4 × 0.4 MG/KG oral, SCID mice, 0.4 mg/kg): 94.9% and 94.0% | % PARASITEMIA day 3 post infection [1, 5]: 0.63% | % PARASITEMIA day 4 post infection [1, 5]: 0.70% | % PARASITEMIA day 5 post infection [1, 5]: 0.60% | % PARASITEMIA day 6 post infection [1, 5]: 0.13% | % PARASITEMIA day 7 post infection [1, 5]: 0.03% | % control ([1]; M1 4 × 0.6 MG/KG oral, SCID mice): 0.3% | Activity ([1]; M1 4 × 0.6 MG/KG oral, SCID mice, 0.6 mg/kg): 99.7% | % PARASITEMIA day 3 post infection [1, 6]: 0.50% | % PARASITEMIA day 4 post infection [1, 6]: 0.75% | % PARASITEMIA day 5 post infection [1, 6]: 0.43% | % PARASITEMIA day 6 post infection [1, 6]: 0.05% | % PARASITEMIA day 7 post infection ([1]; M1 4 × 1.2 MG/KG oral, SCID mice, Table 3, LLQ = <0.01% parasitemia): <LLQ | % control ([1]; M1 4 × 1.2 MG/KG oral, SCID mice, LLQ = <0.01% parasitemia): <LLQ | Activity ([1]; M1 4 × 1.2 MG/KG oral, SCID mice, 1.2 mg/kg): 100% | ED90 ([1]; M1, 4-day oral dosing, SCID mice, dose as free base): 0.37 mg/kg | % PARASITEMIA day 3 post infection [1, 7]: 0.99% | % PARASITEMIA day 4 post infection [1, 7]: 1.04% | % PARASITEMIA day 5 post infection [1, 7]: 0.7% | % PARASITEMIA day 6 post infection [1, 7]: 0.12% | % PARASITEMIA day 7 post infection [1, 7]: 0.01% | % PARASITEMIA day 10 post infection ([1]; Table 4 entry 2: M1 4 × 1.2 mg/kg, PYRO 0 mg/kg, oral, LLQ = <0.01% parasitemia): <LLQ | efflux ratio at 2 h, 1 μM ([2]; Caco-2, pH 7.4, PYRO 0 μM, pH 7.4/7.4, Table 8): 15.4 | efflux ratio at 2 h, 1 μM ([2]; Caco-2, pH 7.4, no P-gp inhibitor, pH 7.4/7.4, Table 7): 18.2 | recovery at 2 h, 1 μM ([2]; Caco-2, pH 7.4, no P-gp inhibitor, pH 7.4/7.4, Table 7, read-out: RECOVERY apical to basolateral (A-B)): 79.8% | recovery at 2 h, 1 μM ([2]; Caco-2, pH 7.4, no P-gp inhibitor, pH 7.4/7.4, Table 7, read-out: RECOVERY basolateral to apical (B-A)): 65.4% | recovery at 2 h, 1 μM ([2]; Caco-2, pH 7.4, with Cyclosporine A 10 μM, with Cyclosporine A 10 μM, pH 7.4/7.4, Table 7, read-out: RECOVERY apical to basolateral (A-B)): 72.5% | recovery at 2 h, 1 μM ([2]; Caco-2, pH 7.4, with Cyclosporine A 10 μM, with Cyclosporine A 10 μM, pH 7.4/7.4, Table 7, read-out: RECOVERY basolateral to apical (B-A)): 86.3% | efflux ratio at 2 h, 1 μM ([2]; Caco-2, pH 7.4, with PYRO 0.3 μM, PYRO 0.3 μM, pH 7.4/7.4, Table 8): 10.1 | efflux ratio at 2 h, 1 μM ([2]; Caco-2, pH 7.4, with PYRO 1 μM, PYRO 1 μM, pH 7.4/7.4, Table 8): 14.5 | efflux ratio at 2 h, 1 μM ([2]; Caco-2, pH 7.4, with PYRO 3 μM, PYRO 3 μM, pH 7.4/7.4, Table 8): 10.2 | efflux ratio at 2 h, 1 μM ([2]; Caco-2, pH 7.4, with PYRO 10 μM, PYRO 10 μM, pH 7.4/7.4, Table 8): 11 | efflux ratio at 2 h, 1 μM ([2]; Caco-2, pH 7.4, with PYRO 30 μM, PYRO 30 μM, pH 7.4/7.4, Table 8): 5.06 | efflux ratio at 2 h, 1 μM ([2]; Caco-2, pH 7.4, with PYRO 100 μM, PYRO 100 μM, pH 7.4/7.4, Table 8): 2.42 | Papp at 2 h, 1 μM ([2]; Caco-2, with PYRO 0.3 μM, PYRO 0.3 μM, pH 7.4/7.4, Table 8): 9.74 ×10⁻⁶ cm/s | Papp A→B at 2 h, 1 μM ([2]; Caco-2, with PYRO 0.3 μM, PYRO 0.3 μM, pH 7.4/7.4, Table 8, read-out: PAPP (A-B)): 3.07 ×10⁻⁶ cm/s | Papp at 2 h, 1 μM ([2]; Caco-2, with PYRO 1 μM, PYRO 1 μM, pH 7.4/7.4, Table 8): 8.25 ×10⁻⁶ cm/s | Papp A→B at 2 h, 1 μM ([2]; Caco-2, with PYRO 1 μM, PYRO 1 μM, pH 7.4/7.4, Table 8, read-out: PAPP (A-B)): 2.17 ×10⁻⁶ cm/s | Papp B→A at 2 h, 1 μM ([2]; Caco-2, with PYRO 1 μM, PYRO 1 μM, pH 7.4/7.4, Table 8, read-out: PAPP (B-A)): 31.4 ×10⁻⁶ cm/s | Papp at 2 h, 1 μM ([2]; Caco-2, with PYRO 3 μM, PYRO 3 μM, pH 7.4/7.4, Table 8): 12.3 ×10⁻⁶ cm/s | Papp A→B at 2 h, 1 μM ([2]; Caco-2, with PYRO 3 μM, PYRO 3 μM, pH 7.4/7.4, Table 8, read-out: PAPP (A-B)): 3.85 ×10⁻⁶ cm/s | Papp B→A at 2 h, 1 μM ([2]; Caco-2, with PYRO 3 μM, PYRO 3 μM, pH 7.4/7.4, Table 8, read-out: PAPP (B-A)): 39.1 ×10⁻⁶ cm/s | Papp at 2 h, 1 μM ([2]; Caco-2, with PYRO 10 μM, PYRO 10 μM, pH 7.4/7.4, Table 8): 11.3 ×10⁻⁶ cm/s | Papp A→B at 2 h, 1 μM ([2]; Caco-2, with PYRO 10 μM, PYRO 10 μM, pH 7.4/7.4, Table 8, read-out: PAPP (A-B)): 3.42 ×10⁻⁶ cm/s | Papp B→A at 2 h, 1 μM ([2]; Caco-2, with PYRO 10 μM, PYRO 10 μM, pH 7.4/7.4, Table 8, read-out: PAPP (B-A)): 37.6 ×10⁻⁶ cm/s | Papp at 2 h, 1 μM ([2]; Caco-2, with PYRO 30 μM, PYRO 30 μM, pH 7.4/7.4, Table 8): 16.4 ×10⁻⁶ cm/s | Papp A→B at 2 h, 1 μM ([2]; Caco-2, with PYRO 30 μM, PYRO 30 μM, pH 7.4/7.4, Table 8, read-out: PAPP (A-B)): 7.29 ×10⁻⁶ cm/s | Papp B→A at 2 h, 1 μM ([2]; Caco-2, with PYRO 30 μM, PYRO 30 μM, pH 7.4/7.4, Table 8, read-out: PAPP (B-A)): 36.9 ×10⁻⁶ cm/s | Papp at 2 h, 1 μM ([2]; Caco-2, with PYRO 100 μM, PYRO 100 μM, pH 7.4/7.4, Table 8): 30 ×10⁻⁶ cm/s | Papp A→B at 2 h, 1 μM ([2]; Caco-2, with PYRO 100 μM, PYRO 100 μM, pH 7.4/7.4, Table 8, read-out: PAPP (A-B)): 19.3 ×10⁻⁶ cm/s | Papp B→A at 2 h, 1 μM ([2]; Caco-2, with PYRO 100 μM, PYRO 100 μM, pH 7.4/7.4, Table 8, read-out: PAPP (B-A)): 46.7 ×10⁻⁶ cm/s | Papp at 2 h, 1 μM ([2]; Caco-2, with none (PYRO 0 μM), PYRO 0 μM, pH 7.4/7.4, Table 8): 7.8 ×10⁻⁶ cm/s | Papp A→B at 2 h, 1 μM ([2]; Caco-2, with none (PYRO 0 μM), PYRO 0 μM, pH 7.4/7.4, Table 8, read-out: PAPP (A-B)): 2 ×10⁻⁶ cm/s | Papp B→A at 2 h, 1 μM ([2]; Caco-2, with none (PYRO 0 μM), PYRO 0 μM, pH 7.4/7.4, Table 8, read-out: PAPP (B-A)): 30.6 ×10⁻⁶ cm/s | Papp A→B at 2 h, 1 μM ([2]; Caco-2, with none (no P-gp inhibitor), no P-gp inhibitor, pH 7.4/7.4, Table 7, read-out: PAPP apical to basolateral (A-B)): 2.97 ×10⁻⁶ cm/s | Papp B→A at 2 h, 1 μM ([2]; Caco-2, with none (no P-gp inhibitor), no P-gp inhibitor, pH 7.4/7.4, Table 7, read-out: PAPP basolateral to apical (B-A)): 54.2 ×10⁻⁶ cm/s | PAPP (A-B) (Caco-2 cells; PYRO 0 μM): 2.00 10E−6 CM/S | PAPP (B-A) (Caco-2 cells; PYRO 0.3 μM): 30.90 10E−6 CM/S | PAPP (A-B) (Caco-2 cells; PYRO 100 μM): 19.3 10E−6 CM/S
